In US6821991B2, “2-substituted thiazolidinones as β-3 adrenergic receptor agonists” (Wyeth, priority 2000, dated 2004):

Assays:
[1] = molecular target: T1, β3-adrenergic receptor (Homo sapiens, UniProt P13945); assay: cAMP accumulation (SPA) in CHO cells transfected with human β3 adrenergic receptor; type: cell-based; conditions: for EC50: CHO cells expressing human β3-AR, cAMP, 30 min, 37° C., 10^-9 M to 10^-5 M; for IA(β3): maximal response relative to maximal response of isoproterenol at 10^-5 M
T1 construct: Full length β3 AR clones (402 amino acids) containing the last 6 amino acids of hβ3-AR are prepared; expressed in transfected cells; host or cells: CHO (Chinese hamster ovary) cells
Procedure: The ability of compounds of this invention to treat or inhibit disorders related to insulin resistance or hyperglycemia was established with representative compounds of this invention in the following standard pharmacological test procedures, which measured the binding selectivity to the β1, β2, and β3 adrenergic receptors. Binding to the receptors was measured in Chinese Hamster ovary (CHO) cells that were transfected with adrenergic receptors.
Cloning of Human β3-AR Genomic DNA: CDNA was constructed by ligating four polymerase chain reaction (PCR) products using the following primers: an ATG-Narl fragment, sense primer 5′-[…]3′, and anti-sense primer 5′[…]3′; a Narl-Accl fragment, 5′[…]3′ as sense and 5′[…]3′ as anti-sense primer; an Accli-Styl fragment, sense primer 5′[…]3′ and anti-sense primer 5′[…]3′ and a Styl-TAG fragment, with sense primer 5′[…]3′ and anti-sense primer 5′[…]3′. The corresponding primer sequences are described in Mantzoros, C. […] The four fragments are ligated into a pUC 18 plasmid (Gibco-BRL) and sequenced.
Binding Procedure: Clones expressing receptor levels of 70 to 110 fmoles/mg protein were used in the test procedures. CHO cells were grown in 24-well tissue culture plates in Dulbecco's Modified Eagle Media with 10% fetal bovine serum, MEM non-essential amino acids, Penicillin-Streptompycin and Geneticin. On the day of test procedure, growth medium was replaced with preincubation media (Dulbecco's Modified Eagle Media) and incubated for 30 minutes at 37° C. […] Test compounds were tested over a concentration range of 10^−9 M to 10^−5 M for β3 cells and 10^−8 to 10^−4 M for β1 and β2 transfected cells. Isoproterenol (10^−5 M) was used as an internal standard for comparison of activity. Cells were incubated at 37° C. on a rocker for 30 min with the β3 cells and 15 min for β1 and β2 cells. Incubation was stopped with the addition of 0.2N HCl and neutralized with 2.5N NaOH. The plates, containing the cells and neutralized media, were stored at −20 degrees celsius until ready to test for cAMP using the SPA test kit (Amersham).
Data Analysis and Results: Data collected from the SPA test procedure were analyzed as per cent of the maximal isoproterenol response at 10^−5 M. Activity curves were plotted using the SAS statistical and graphics software.

T1 sequence (P13945 whole entry): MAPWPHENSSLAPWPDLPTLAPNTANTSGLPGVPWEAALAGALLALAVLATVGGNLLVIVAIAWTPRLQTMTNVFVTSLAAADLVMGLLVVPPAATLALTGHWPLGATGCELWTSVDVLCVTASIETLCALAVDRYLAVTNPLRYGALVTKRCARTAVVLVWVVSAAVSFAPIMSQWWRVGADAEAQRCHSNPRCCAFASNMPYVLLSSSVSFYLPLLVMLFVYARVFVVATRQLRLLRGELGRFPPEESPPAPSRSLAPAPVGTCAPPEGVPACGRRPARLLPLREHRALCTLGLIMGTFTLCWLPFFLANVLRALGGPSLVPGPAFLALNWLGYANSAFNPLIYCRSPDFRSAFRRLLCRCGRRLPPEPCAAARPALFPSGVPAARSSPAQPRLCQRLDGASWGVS

melting point	EC50 [1] [nM]	IA(β3) [1]	SMILES
> 130 °C (dec.)	1	1.0	CCOC(=O)CC[C@H](NC1=NC(=O)C(=Cc2ccc(N3CCC(NC[C@H](O)c4ccc(O)c(NS(C)(=O)=O)c4)CC3)cc2)S1)C(=O)OCC [Example 30, (2S)-2-[5-(4-{4-[(2R)-2-Hydroxy-2-(4-hydroxy-3-methanesulfonylamino-phenyl)-ethylamino]-piperidin-1-yl}-benzylidene)-4-oxo-4,5-dihydro-thiazol-2-ylamino]-pentanedioic acid diethyl ester]
> 115 °C (dec.)	3	1.0	O=C1CCc2c(OC[C@@H](O)CNCCOc3ccc(C=C4SC(N5CCCCC5)=NC4=O)cc3)ccc(O)c2N1 [Example 34, 8-Hydroxy-5-((2S)-2-hydroxy-3-{2-[4-(4-oxo-2-piperidin-1-yl-4H-thiazol-5-ylidenemethyl)-phenoxy]-ethylamino}-propoxy)-3,4-dihydro-1H-quinolin-2-one]
